Structures are written as SMILES. “Also recorded” adds a separate entry of the source. Where a name gives a salt, the structure may show the parent alone.

For data set [1], the target named is T1, recombinant NPM1 C-terminal domain (residues 240-294) (Homo sapiens, UniProt P06748).
T1 construct: 6×His (N, cleaved yes); made in house; host or cells: NiCo21(DE3) E. coli
The experiment in a line: In vitro NPM1 C-terminal domain labeling (Western blot). The settings on record: 10 μM NPM1, 100 μM probe, 100 μM glutathione, HEPES pH 7.5, about 440 nm, 15 min. The format is biochemical. The protocol:
In vitro NPM1 C-terminal domain labeling and characterization: Labeling of recombinant NPM1 with the pyridinium salt 2b was performed with the following conditions: 10 μM NPM1 was treated with DMSO or 100 μM pyridinium salt 2b (2% DMSO) in 50 mM HEPES pH 7.5, 150 mM NaCl, 1.5 mM MgCl2, and 100 μM glutathione (GSH). Samples were irradiated at 450 nm (Kessil PR160L-440) at 100% intensity for 15 minutes at room temperature or 50° C. The reaction mixture was quenched with the addition of 4X LDS buffer (Invitrogen) containing 10 mM DTT (Pierce) and boiled for 10 minutes before resolving proteins on 4-12% Bis-Tris NuPAGE gels (Invitrogen), transferred onto a Trans-Blot Turbo Mini 0.2 μm nitrocellulose membrane (BioRad), blocked with 5% BSA in tris-buffered saline with Tween-20 (TBST), and incubated with HRP-linked anti-biotin (Cell Signaling Technology, #7075).
For orientation: In western blotting, separated proteins are transferred to a membrane and probed.

For another data set, the system named is HEK293T lysates. Briefly: Chemoproteomic profiling of HEK293T lysates (protein-level enrichment). It is filed as biochemical, human. The protocol: In lysate tryptophan probe treatment for protein-level characterization: HEK293T cell pellets were suspended in native lysis buffer (50 mM HEPES pH 7.5, 150 mM sodium chloride (NaCl), 1.5 mM MgCl2, 1 mM DTT, 0.8% NP-40, 5% glycerol, and 1× protease inhibitors (Thermo)) at 2× the pellet volume. The samples were sonicated on ice for 30 seconds at 20% amplitude with a 2 second pulse ON and 3 second pulse OFF. Cell debris was removed by centrifugation at 20,000×g for 20 minutes at 4° C. Protein concentration was determined by bicinchoninic acid (BCA) (Pierce) and diluted down to 5 mg/mL with ChemProt buffer (50 mM HEPES pH 7.5, 150 mM NaCl, 1.5 mM MgCl2, 1 mM DTT, 0.4% NP-40, and 1x protease inhibitors (Thermo). 5 mg cell lysates were treated with 100× stocks of the tryptophan probes (pyridinium salts 1a, 1b, and 2b) to generate final concentrations (0, 1, 10, and 100 μM) in 1% DMSO. Lysates were incubated for 1 hour at 4° C. followed by photo-activation at respective wavelengths for 20 minutes at 4° C. Excess probe was removed using Sephadex G-25 PD-10 desalting columns (GE Healthcare) pre-equilibrated with 50 mM HEPES pH 7.5, 150 mM NaCl, 1.5 mM MgCl2, and 0.4% NP-40. The samples were then treated with 100 μL Neutravidin resin as a 50% slurry (Peirce). The samples were incubated overnight on a rotating apparatus at R.T. The following day, the beads were transferred to a MobiCol column (Boca Scientific), washed 3× with phosphate buffered saline (PBS) containing 0.2% SDS, washed 3× with PBS, and the enriched proteins were eluted with 2× NuPAGE lithium dodecyl sulfate (LDS) containing 10 mM DTT (Pierce) and heated for 30 minutes at 55° C. The eluent was collected and subsequently treated with 20 mM iodoacetamide (Pierce) for 30 minutes at R.T. protected from light. Samples were passed through detergent removal columns (Pierce) that were pre-equilibrated with 50 mM HEPES pH 8.0. The samples were treated with 2.5 μg Trypsin/LysC (Promega) at 37° C. for 16 hours. The following day, the sample was collected and prepped for isobaric labeling with TMT reagents (Thermo) as specified by the manufacturer.
Quantitative proteomics by two-dimensional nano liquid chromatography-tandem mass spectrometry (nLC-MS/MS): For protein-level characterization, the TMT-labeled sample were reconstituted in 0.1% formic acid (FA)/2% acetonitrile for offline high-pH reversed phase separation (RP10) using a Dionex UltiMate 3000 high-performance liquid chromatography (HPLC) system with fraction collection using Chromeleon v.6.8 (Thermo) software. Separation was achieved on a Waters Xbridge C18 3.5 μm 2.1×150 mm HPLC column (Waters) using a flow rate of 250 μL min-1 and the following ternary gradient and conditions: mobile phase A=water (HPLC grade), mobile phase B=acetonitrile (HPLC grade), and mobile phase C=200 mM ammonium acetate, pH 10. Mobile phase C is held at 10% throughout gradient. Starting conditions are 89% mobile phase A and 1% mobile phase B, ramping mobile phase B to 80% over 65 min. Fractions were collected in 96-well plates at 100 sec per well. Fractions were reduced down to 12 fractions, dried, and reconstituted in 0.1% FA/2% acetonitrile for nLC-MS/MS. All data were acquired using a Orbitrap Fusion Lumos coupled to an Easy-nLC 1200 nanoflow liquid chromatograph operating at 300 nL min-1. Peptides were cleaned up using a 1 cm online custom trap then eluted on a custom 20 cm laser pulled 75 μm column with C18 resin. Peptides were quantified using the synchronous precursor selection (SPS-MS3) or HCD method for TMT quantitation with 120k MS1 resolving power, 50 ms max injection time and 100% AGC. MS2 spectra were selected using the top ten most abundant features with a charge state between 2-6 using CID (collision induced dissociation) in the ion trap. The AGC was set to 100% with an isolation width of 0.7. MS3 was performed on the top 10 most abundant MS2 features between 400-1600 amu with a collision energy of 55%, AGC of 250%, and 50k resolution. […]

Data set [2] in a line: Fluorescence lifetime and emission measurements. It is filed as physicochemical. The settings on record: 10 μM in H2O, 375 nm excitation. The protocol: The emission spectra were generated by excitation of a 10 μM solution of either pyridinium salt 2a or pyridinium salt 2b in H2O. Analyses were performed at 375 nm excitation with an emission slit width of 5 nm and an excitation slit width of 5 nm. The emission wavelength was gathered from 400 nm to 600 nm.
FIGS. 9A-9D show fluorescence decay spectra of pyridinium salts 2a and 2b in selected solvents according to at least one embodiment of the present disclosure. Specifically, FIG. 9A is a fluorescence decay spectrum of pyridinium salt 2a in 1,2-dichloroethane, FIG. 9B is a fluorescence decay spectrum of pyridinium salt 2a in CH3CN, FIG. 9C is a fluorescence decay spectrum of pyridinium salt 2a in H2O, and FIG. 9D is a fluorescence decay spectrum of pyridinium salt 2b in H2O. The fluorescent decay spectra were generated with a 1-10 μM solution of pyridinium salt (10 μM for H2O and 1 μM for other solvents) using a GG420 long pass filter and a 375 nm excitation wavelength. The instrument response factor was measured using a highly diluted solution of LUDOX AS-30 colloidal silica in water and a ND1.0 filter. The concentration of LUDOX and the emission slit width were adjusted until the intensity of the instrument response function (IRF) was similar to the fluorescent decay intensity. The procedure given in the EasyLife X User's Manual was followed.

T1 sequence (P06748 240-294): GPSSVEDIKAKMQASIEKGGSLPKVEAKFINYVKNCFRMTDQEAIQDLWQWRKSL

For `COc1ccc2cc(-c3cc(C)[n+](N(C)C(=O)OCCCCC[C@H]4SC[C@H]5NC(=O)N[C@H]54)c(C)c3)ccc2c1` (stereo in doubt) [pyridinium salt 2b, 4-(6-methoxynaphthalen-2-yl)-2,6-dimethyl-1-(methyl(((5-((3aR,4R,6aS)-2-oxohexahydro-1H-thieno[3,4-d]imidazol-4-yl)pentyl)oxy)carbonyl)amino)pyridin-1-ium tetrafluoroborate], the “Western analysis of construct labeling” value in data set [1] is “photo-dependent labeling”. Moreover, the “Western blot (streptavidin-HRP) proteome labeling profile of elutions” value in the data set on HEK293T lysates (0-100 μM probe, with/without light, before digestion) is “concentration and optically dependent proteome labeling profiles; also recorded: dose-response profiles”. In addition, in the data set with HEK293T lysates (100 μM probe, FIG. 17B), the “percentage of unique enriched proteins (proteome coverage comparison of probes)” value is “about 69%”. Also, in the data set with HEK293T lysates (about 100 μM probe, 5 mg/mL lysate, 60 min incubation, 20 min irradiation: 302 nm (1a), 320 nm (1b), 440 nm (2b)), the “number of proteins identified (from ≥2 unique peptides) showing ≥2-fold enrichment versus DMSO” value is 523. For the same molecule, in data set [2], the “relative fluorescence quantum yield ΦF1 of pyridinium salt 2b: pyridinium salt 2a” value is 3.3.

Values taken from patent US20240262845A1, “PYRIDINIUM SALTS, METHODS OF MAKING, AND METHODS OF USE” (UNIVERSITY OF WYOMING, priority 2023, published 2024).
